Like-named read-outs stand apart in the source and are kept apart here.
Legend:
Assay type in all cases: binding
403 non-mutant kinases = assay: KINOMEscan panel selectivity (S-Score, number of kinases engaged); conditions: 10 μM; for S-Score (35): non-mutant kinases below 35% control divided by kinases examined
Method: Selectivity profiling of compound 3 among a panel of kinases was performed with KINOMEscan® as set forth below. The KINOMEscan® screening platform employs an active site-directed competition binding assay to quantitatively measure interactions between a test compound, e.g., compound 3, and more than 450 kinases and disease-relevant mutant variants.
Screening of compound 3 was conducted at a concentration of 10 μM by Eurofins DiscoverX. Activity is measured as the ability of compound 3 to displace the kinase from a solid support relative to a negative control (i.e., DMSO). The output is % control.
The selectivity score (S-Score) refers to the number of non-mutant kinases that display a % control below a specific number, divided by the number of non-mutant kinases that were examined.
Selectivity profiling of compound 5 among a panel of kinases was performed with KINOMEscan® as set forth below.

AKT3 = AKT3 (Homo sapiens (Human), UniProt Q9Y243); assay: KINOMEscan; conditions: AKT3, 10000 nM; read-out: Percent Control
CDK3 = CDK3 (Homo sapiens (Human), UniProt Q00526); assay: KINOMEscan; conditions: CDK3, 10000 nM; read-out: Percent Control
CSNK1G1 = CSNK1G1 (Homo sapiens (Human), UniProt Q9HCP0); assay: KINOMEscan; conditions: CSNK1G1, 10000 nM; read-out: Percent Control
CSNK1G1, sequence (Q9HCP0 whole entry): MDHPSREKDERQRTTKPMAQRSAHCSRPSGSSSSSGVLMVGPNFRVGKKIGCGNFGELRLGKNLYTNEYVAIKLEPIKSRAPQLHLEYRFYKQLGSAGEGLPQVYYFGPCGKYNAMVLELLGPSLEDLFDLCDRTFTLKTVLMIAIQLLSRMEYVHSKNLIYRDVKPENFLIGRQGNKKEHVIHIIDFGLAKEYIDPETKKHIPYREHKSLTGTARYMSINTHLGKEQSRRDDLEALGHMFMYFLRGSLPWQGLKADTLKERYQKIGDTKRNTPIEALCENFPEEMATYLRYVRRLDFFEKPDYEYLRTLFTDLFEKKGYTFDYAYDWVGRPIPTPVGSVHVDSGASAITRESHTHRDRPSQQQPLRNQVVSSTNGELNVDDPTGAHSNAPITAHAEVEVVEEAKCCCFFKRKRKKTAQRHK

EGFR(G719C) = EGFR(G719C) (Homo sapiens (Human), UniProt P00533, G719C); assay: KINOMEscan; conditions: 10000 nM, read-out: Percent Control
EGFR(G719C), sequence (P00533 25-1210 G719C): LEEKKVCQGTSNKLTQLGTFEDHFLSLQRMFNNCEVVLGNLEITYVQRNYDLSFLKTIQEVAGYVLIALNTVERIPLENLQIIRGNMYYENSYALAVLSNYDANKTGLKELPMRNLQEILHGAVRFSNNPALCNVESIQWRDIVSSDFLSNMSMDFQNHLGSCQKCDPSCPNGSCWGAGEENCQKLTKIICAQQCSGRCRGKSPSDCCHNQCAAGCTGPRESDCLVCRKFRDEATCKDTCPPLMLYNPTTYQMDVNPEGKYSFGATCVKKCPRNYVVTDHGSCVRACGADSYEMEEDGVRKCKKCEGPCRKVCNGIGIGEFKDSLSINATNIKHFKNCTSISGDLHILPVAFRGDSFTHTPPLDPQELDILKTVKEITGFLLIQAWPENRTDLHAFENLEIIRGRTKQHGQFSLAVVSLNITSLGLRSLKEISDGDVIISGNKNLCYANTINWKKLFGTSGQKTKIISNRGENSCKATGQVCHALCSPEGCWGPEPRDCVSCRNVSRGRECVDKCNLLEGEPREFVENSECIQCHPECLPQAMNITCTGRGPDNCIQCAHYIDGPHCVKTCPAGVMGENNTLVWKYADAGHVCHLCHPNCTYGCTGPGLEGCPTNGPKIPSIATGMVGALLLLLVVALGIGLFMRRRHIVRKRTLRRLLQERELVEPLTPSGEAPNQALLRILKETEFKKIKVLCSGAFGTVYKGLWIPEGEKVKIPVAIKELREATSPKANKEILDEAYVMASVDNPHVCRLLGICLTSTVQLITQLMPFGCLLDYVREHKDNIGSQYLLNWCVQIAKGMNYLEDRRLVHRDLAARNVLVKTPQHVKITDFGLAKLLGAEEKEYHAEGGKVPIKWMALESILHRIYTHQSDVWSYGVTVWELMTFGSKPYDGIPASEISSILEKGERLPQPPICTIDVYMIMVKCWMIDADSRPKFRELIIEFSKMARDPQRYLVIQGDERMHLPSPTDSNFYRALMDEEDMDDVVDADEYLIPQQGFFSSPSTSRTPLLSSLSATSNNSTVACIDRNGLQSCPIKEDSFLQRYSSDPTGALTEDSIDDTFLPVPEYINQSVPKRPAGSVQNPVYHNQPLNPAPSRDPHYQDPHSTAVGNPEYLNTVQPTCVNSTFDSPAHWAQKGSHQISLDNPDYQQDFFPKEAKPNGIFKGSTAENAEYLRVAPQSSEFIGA

EPHA6 = EPHA6 (Homo sapiens (Human), UniProt Q9UF33); assay: KINOMEscan; conditions: EPHA6, 10000 nM; read-out: Percent Control
ERK5 = ERK5 (Homo sapiens (Human), UniProt Q13164); assay: KINOMEscan; conditions: ERK5, 10000 nM; read-out: Percent Control
ERK5, sequence (Q13164 whole entry): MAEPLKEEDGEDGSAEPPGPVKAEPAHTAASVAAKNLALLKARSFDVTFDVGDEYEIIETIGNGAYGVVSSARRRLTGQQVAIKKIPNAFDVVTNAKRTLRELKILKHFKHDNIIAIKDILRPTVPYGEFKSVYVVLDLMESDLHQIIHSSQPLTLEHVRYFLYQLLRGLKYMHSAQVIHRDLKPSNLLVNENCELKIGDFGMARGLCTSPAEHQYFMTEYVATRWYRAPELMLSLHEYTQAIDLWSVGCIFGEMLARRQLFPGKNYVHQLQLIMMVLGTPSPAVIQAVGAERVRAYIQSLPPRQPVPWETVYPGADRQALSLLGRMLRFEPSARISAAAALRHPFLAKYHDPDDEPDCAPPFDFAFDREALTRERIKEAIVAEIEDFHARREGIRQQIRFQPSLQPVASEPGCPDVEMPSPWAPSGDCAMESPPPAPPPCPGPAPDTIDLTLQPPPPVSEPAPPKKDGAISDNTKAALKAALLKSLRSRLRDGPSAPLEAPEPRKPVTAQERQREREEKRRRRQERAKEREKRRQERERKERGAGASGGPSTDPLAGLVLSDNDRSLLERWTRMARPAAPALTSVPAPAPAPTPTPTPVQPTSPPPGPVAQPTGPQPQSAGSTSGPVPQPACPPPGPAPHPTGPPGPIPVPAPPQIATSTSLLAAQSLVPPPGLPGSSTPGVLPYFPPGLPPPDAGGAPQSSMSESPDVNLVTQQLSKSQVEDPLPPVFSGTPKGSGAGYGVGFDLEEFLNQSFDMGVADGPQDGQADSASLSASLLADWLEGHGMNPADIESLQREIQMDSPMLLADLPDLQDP

FLT3(K663Q) = FLT3(K663Q) (Homo sapiens (Human), UniProt P36888, K663Q); assay: KINOMEscan; conditions: 10000 nM, read-out: Percent Control
IRAK3 = IRAK3 (Homo sapiens (Human), UniProt Q9Y616); assay: KINOMEscan; conditions: IRAK3, 10000 nM; read-out: Percent Control
IRAK3, sequence (Q9Y616 whole entry): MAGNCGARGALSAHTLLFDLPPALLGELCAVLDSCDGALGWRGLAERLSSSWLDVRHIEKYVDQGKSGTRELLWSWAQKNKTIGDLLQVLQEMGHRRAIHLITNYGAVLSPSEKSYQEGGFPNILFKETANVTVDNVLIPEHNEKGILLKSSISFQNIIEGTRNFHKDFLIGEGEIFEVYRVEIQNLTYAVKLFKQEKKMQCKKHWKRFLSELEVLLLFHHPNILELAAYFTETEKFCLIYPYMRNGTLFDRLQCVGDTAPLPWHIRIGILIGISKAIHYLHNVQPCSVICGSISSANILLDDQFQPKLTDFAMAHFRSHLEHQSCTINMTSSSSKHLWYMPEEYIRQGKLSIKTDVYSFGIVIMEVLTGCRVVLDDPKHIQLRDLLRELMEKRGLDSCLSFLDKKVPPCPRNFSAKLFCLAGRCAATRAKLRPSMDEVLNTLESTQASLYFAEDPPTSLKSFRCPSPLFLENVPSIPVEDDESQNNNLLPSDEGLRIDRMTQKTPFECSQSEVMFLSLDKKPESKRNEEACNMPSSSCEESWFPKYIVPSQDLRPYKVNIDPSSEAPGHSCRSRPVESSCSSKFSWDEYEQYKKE

KIT(V5S9D, V654A) = KIT(V5S9D, V654A) (Homo sapiens (Human), UniProt P10721, V559D/V654A); assay: KINOMEscan; conditions: 10000 nM, read-out: Percent Control
LRRK2 = LRRK2 (Homo sapiens (Human), UniProt Q5S007); assay: KINOMEscan; conditions: LRRK2, 10000 nM; read-out: Percent Control
LZK = LZK (Homo sapiens (Human), UniProt O43283); assay: KINOMEscan; conditions: 10000 nM, read-out: Percent Control
MAP3K2 = MAP3K2 (Homo sapiens (Human), UniProt Q9Y2U5); assay: KINOMEscan; conditions: MAP3K2, 10000 nM; read-out: Percent Control
MKK7 = MKK7 (Homo sapiens (Human), UniProt O14733); assay: KINOMEscan; conditions: MKK7, 10000 nM; read-out: Percent Control
NDR2 = NDR2 (Homo sapiens (Human), UniProt Q9Y2H1); assay: KINOMEscan; conditions: NDR2, 10000 nM; read-out: Percent Control
NEK11 = NEK11 (Homo sapiens (Human), UniProt Q8NG66); assay: KINOMEscan; conditions: NEK11, 10000 nM; read-out: Percent Control
PAK1 = PAK1 (Homo sapiens (Human), UniProt Q13153); assay: KINOMEscan; conditions: PAK1, 10000 nM; read-out: Percent Control
PAK2 = PAK2 (Homo sapiens (Human), UniProt Q13177); assay: KINOMEscan; conditions: PAK2, 10000 nM; read-out: Percent Control
PAK4 = PAK4 (Homo sapiens (Human), UniProt O96013); assay: KINOMEscan; conditions: PAK4, 10000 nM; read-out: Percent Control
PAK4, sequence (O96013 whole entry): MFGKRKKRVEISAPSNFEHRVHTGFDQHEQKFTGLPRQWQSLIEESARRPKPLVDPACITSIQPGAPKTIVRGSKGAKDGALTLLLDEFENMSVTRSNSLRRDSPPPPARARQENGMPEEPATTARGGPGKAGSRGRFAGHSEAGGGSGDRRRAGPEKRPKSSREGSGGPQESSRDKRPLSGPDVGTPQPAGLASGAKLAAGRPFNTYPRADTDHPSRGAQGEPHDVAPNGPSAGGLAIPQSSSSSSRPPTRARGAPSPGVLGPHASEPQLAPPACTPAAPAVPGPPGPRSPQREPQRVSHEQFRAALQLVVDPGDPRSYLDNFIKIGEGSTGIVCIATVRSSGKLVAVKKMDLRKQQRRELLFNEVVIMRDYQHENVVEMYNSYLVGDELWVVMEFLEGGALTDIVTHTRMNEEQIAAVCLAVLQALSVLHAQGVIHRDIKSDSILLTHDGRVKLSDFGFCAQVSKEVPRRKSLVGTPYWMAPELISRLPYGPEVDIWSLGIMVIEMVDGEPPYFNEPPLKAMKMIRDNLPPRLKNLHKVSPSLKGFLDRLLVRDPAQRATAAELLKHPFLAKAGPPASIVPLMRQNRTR

PIK3CG = PIK3CG (Homo sapiens (Human), UniProt P48736); assay: KINOMEscan; conditions: 10000 nM, read-out: Percent Control
PIK3CG, sequence (P48736 whole entry): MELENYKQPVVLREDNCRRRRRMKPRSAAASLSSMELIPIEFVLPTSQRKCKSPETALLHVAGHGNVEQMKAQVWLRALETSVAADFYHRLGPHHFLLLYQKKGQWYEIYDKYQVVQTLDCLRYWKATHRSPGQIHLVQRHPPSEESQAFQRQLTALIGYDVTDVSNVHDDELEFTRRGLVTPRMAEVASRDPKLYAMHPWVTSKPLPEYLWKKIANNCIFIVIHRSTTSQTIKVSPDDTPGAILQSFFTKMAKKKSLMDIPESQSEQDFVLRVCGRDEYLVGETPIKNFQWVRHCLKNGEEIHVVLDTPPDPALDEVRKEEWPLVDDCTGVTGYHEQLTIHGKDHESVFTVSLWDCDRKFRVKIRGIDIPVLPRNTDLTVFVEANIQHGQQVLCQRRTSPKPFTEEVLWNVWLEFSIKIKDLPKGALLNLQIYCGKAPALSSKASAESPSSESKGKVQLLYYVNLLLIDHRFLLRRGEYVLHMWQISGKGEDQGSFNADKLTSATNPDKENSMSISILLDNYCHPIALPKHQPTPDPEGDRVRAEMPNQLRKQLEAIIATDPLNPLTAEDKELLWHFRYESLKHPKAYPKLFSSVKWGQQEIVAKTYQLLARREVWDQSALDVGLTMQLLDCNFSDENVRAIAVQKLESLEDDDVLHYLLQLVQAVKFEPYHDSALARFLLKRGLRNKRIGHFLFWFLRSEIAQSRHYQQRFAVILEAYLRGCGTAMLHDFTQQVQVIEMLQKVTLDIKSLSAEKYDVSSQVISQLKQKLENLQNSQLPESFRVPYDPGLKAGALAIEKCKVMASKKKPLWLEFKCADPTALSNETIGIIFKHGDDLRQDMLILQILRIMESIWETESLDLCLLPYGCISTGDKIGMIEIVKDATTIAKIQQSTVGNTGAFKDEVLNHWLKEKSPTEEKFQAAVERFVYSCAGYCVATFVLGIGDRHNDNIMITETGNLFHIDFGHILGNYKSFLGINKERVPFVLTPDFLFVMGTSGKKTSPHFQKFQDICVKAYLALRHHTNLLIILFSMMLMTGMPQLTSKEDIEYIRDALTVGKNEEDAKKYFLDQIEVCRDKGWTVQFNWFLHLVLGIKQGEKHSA

PRKCE = PRKCE (Homo sapiens (Human), UniProt Q02156); assay: KINOMEscan; conditions: 10000 nM, read-out: Percent Control
PRKD3 = PRKD3 (Homo sapiens (Human), UniProt O94806); assay: KINOMEscan; conditions: PRKD3, 10000 nM; read-out: Percent Control
[1] = molecular target: RPS6KA4(Kin.Dom.2-C-terminal) (Homo sapiens (Human), UniProt O75676); assay: KINOMEscan; conditions: 10000 nM, read-out: Percent Control
[2] = molecular target: RSK3(Kin.Dom.1-N-terminal) (Homo sapiens (Human), UniProt Q15349); assay: KINOMEscan; conditions: 10000 nM, read-out: Percent Control
RSK3(Kin.Dom.1-N-terminal), sequence (Q15349 59-318): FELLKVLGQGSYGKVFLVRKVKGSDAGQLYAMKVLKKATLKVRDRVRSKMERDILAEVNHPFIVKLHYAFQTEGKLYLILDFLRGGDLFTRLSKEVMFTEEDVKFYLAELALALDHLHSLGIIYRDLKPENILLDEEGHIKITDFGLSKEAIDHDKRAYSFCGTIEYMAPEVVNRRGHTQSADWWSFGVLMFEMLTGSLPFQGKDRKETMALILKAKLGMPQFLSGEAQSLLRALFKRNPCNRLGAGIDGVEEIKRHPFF

STK39 = STK39 (Homo sapiens (Human), UniProt Q9UEW8); assay: KINOMEscan; conditions: STK39, 10000 nM; read-out: Percent Control
TAOK1 = TAOK1 (Homo sapiens (Human), UniProt Q7L7X3); assay: KINOMEscan; conditions: TAOK1, 10000 nM; read-out: Percent Control
TEC = TEC (Homo sapiens (Human), UniProt P42680); assay: KINOMEscan; conditions: 10000 nM, read-out: Percent Control
TSSK1B = TSSK1B (Homo sapiens (Human), UniProt Q9BXA7); assay: KINOMEscan; conditions: 10000 nM, read-out: Percent Control
YANK2 = YANK2 (Homo sapiens (Human), UniProt Q9NY57); assay: KINOMEscan; conditions: YANK2, 10000 nM; read-out: Percent Control

| Compound | S-Score (35) (403 non-mutant kinases) | remaining binding at 10 µM (AKT3) [%] | remaining binding at 10 µM (CDK3) [%] | remaining binding at 10 µM (CSNK1G1) [%] | remaining binding at 10 µM (EGFR(G719C)) [%] | remaining binding at 10 µM (EPHA6) [%] | remaining binding at 10 µM (ERK5) [%] | remaining binding at 10 µM (FLT3(K663Q)) [%] | remaining binding at 10 µM (IRAK3) [%] | remaining binding at 10 µM (LRRK2) [%] | remaining binding at 10 µM (LZK) [%] | remaining binding at 10 µM (MAP3K2) [%] | remaining binding at 10 µM (MKK7) [%] | remaining binding at 10 µM (NDR2) [%] | remaining binding at 10 µM (NEK11) [%] | remaining binding at 10 µM (PAK1) [%] | remaining binding at 10 µM (PAK2) [%] | remaining binding at 10 µM (PAK4) [%] | remaining binding at 10 µM (PIK3CG) [%] | remaining binding at 10 µM (PRKCE) [%] | other results |
| --- | --- | --- | --- | --- | --- | --- | --- | --- | --- | --- | --- | --- | --- | --- | --- | --- | --- | --- | --- | --- | --- |
| COc1cc(N2CCC(N3CCN(C)CC3)CC2)ccc1Nc1ncc2c(n1)N(C)c1sc(C)nc1C(=O)N2 [Compound 3, 6-((2-methoxy-4-(4-(4-methylpiperazin-1-yl)piperidin-1-yl)phenyl)amino)-2,4-dimethyl-4,9-dihydro-10H-pyrimido[5,4-b]thiazolo[5,4-e][1,4]diazepin-10-one] | 0.02 | 100 | 87 | 86 | 34 | 83 | 80 | 96 | 80 | 98 | 100 | 100 | 100 | 86 | 100 | 64 | 72 | 65 | 93 | 100 | number of non-mutant kinases displaying <35% relative to control (403 non-mutant kinases; out of 403 non-mutant kinases): five; number of other kinases engaged with greater than 65% inhibition (403 non-mutant kinases; panel of 403 kinases): 4; remaining binding at 10 µM (KIT(V5S9D, V654A); KIT(V5S9D, V654A)): 108%; remaining binding at 10 µM (PRKD3): 75%; remaining binding at 10 µM [1]: 100%; remaining binding at 10 µM [2]: 83%; remaining binding at 10 µM (STK39): 100%; remaining binding at 10 µM (TAOK1): 100%; remaining binding at 10 µM (TEC): 69%; remaining binding at 10 µM (TSSK1B): 74%; remaining binding at 10 µM (YANK2): 85% |
| COc1cc(N2CCC(N3CCN(C)CC3)CC2)ccc1Nc1ncc2c(n1)N(C)c1sc(C)nc1C(=O)N2C [Compound 5, 6-((2-methoxy-4-(4-(4-methylpiperazin-1-yl)piperidin-1-yl)phenyl)amino)-2,4,9-trimethyl-4,9-dihydro-10H-pyrimido[5,4-b]thiazolo[5,4-e][1,4]diazepin-10-one] | 0.042 | 100 | 100 | 97 | 100 | 86 | 30 | 96 | 99 | 32 | 100 | 100 | 100 | 64 | 100 | 92 | 89 | 100 | 88 | 100 | S(1) (403 non-mutant kinases): 0.005; S(10) (403 non-mutant kinases): 0.012; remaining binding at 10 µM (KIT(V5S9D, V654A); KIT(V559D, V654A)): 100%; remaining binding at 10 µM (PRKD3): 34%; remaining binding at 10 µM [1]: 30%; remaining binding at 10 µM [2]: 100%; remaining binding at 10 µM (STK39): 77%; remaining binding at 10 µM (TAOK1): 80%; remaining binding at 10 µM (TEC): 100%; remaining binding at 10 µM (TSSK1B): 68%; remaining binding at 10 µM (YANK2): 100% |

— US12365696B2, “Small-molecule focal adhesion kinase (FAK) inhibitors” (DANA-FARBER CANCER INSTITUTE, INC., priority 2019, dated 2025)
